Data: PMC3726336, “Product inhibition of cellulases studied with ^14C-labeled cellulose substrates” (Biotechnology for Biofuels, 2013)

Legend:
TrCel7A = target: T1, TrCel7A (Trichoderma reesei, UniProt P62694); experiment: Inhibition of synergistic hydrolysis of 14C-BC by TrCel7A (supplemented with EG TrCel5A); assay type: biochemical; settings: IC50 for cellobiose, 14C-BC substrate, average over time points
T1 construct: TrCel7A was purified from the culture filtrate of Tr QM 9414 as described previously; made in house; host or cells: Trichoderma reesei QM 9414 culture filtrate (native producer)
T1 sequence (P62694 18-513): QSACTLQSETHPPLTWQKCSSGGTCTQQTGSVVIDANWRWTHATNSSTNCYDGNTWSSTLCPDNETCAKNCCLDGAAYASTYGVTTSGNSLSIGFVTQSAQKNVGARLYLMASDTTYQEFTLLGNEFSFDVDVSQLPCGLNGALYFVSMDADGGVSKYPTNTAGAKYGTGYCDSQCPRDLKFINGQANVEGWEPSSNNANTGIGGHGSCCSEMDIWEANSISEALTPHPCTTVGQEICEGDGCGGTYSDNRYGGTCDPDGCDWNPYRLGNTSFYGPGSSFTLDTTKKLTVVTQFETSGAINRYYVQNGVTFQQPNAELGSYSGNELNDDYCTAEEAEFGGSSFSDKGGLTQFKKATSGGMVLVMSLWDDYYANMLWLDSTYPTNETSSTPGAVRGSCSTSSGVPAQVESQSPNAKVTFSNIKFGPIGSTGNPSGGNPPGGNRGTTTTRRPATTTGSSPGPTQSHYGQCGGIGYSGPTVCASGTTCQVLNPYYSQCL
Procedure: To study the cellobiose inhibition of GH7 CBHs, the synergistic hydrolysis of ^14C-BC in the presence of added cellobiose was followed (Figure 3, Additional file 1: Figures S1 and S2). Because the cellobiose inhibition of the EG TrCel5A is much weaker than that of GH7 CBHs, the inhibition of synergistic hydrolysis apparently reflects the inhibition of CBH. The strength of cellobiose inhibition was analyzed using plots of (DCB/DCB=0) versus [cellobiose], where DCB and DCB=0 represent the degree of conversion of ^14C-BC in the presence and absence of cellobiose, respectively (Figure 4, Additional file 1: Figure S3). […]
where [CB] is the concentration of cellobiose; [^14CBC] is the concentration of ^14C-BC used in the experiment; and C1, C2 and H are empirical constants. Equation 5 differs from Equation 1 by the presence of constant H. H was included to improve the fit and is a constant that accounts for the background radioactivity (the degree of conversion that is independent of CBH). The degree of conversion resulting from the activity of the EG was measured in a separate experiment (Additional file 1: Figure S4) and was subtracted from the degree of conversion resulting from the synergistic hydrolysis. […] Provided with the values of C1, C2 and H, the value of IC50 was calculated as follows: […]

CtCel7A = CtCel7A (Chaetomium thermophilum, UniProt A7WNU1); experiment: Cellobiose inhibition of MUL hydrolysis by CtCel7A; assay type: biochemical; settings: MUL substrate (5 μM)
Chain of CtCel7A (A7WNU1 entry or part of it): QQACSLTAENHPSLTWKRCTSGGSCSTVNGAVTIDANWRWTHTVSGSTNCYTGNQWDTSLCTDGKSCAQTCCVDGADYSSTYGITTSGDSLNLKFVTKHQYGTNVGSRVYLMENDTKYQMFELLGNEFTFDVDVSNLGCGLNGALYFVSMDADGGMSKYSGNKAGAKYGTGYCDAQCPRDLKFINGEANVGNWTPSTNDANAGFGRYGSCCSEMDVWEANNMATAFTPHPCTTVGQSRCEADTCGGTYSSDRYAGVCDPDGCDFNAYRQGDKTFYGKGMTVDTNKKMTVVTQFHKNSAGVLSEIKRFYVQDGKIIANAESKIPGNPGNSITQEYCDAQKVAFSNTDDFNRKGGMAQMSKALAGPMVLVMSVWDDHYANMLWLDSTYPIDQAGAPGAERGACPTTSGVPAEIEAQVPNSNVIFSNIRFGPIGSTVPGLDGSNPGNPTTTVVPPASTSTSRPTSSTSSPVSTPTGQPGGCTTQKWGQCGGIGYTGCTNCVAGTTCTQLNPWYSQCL
Text: The cellobiose inhibition of GH7 CBHs is most often studied on low-Mw model substrates. However, it has been shown that the inhibition of CBHs acting on low-Mw substrates appears to be much stronger than that on cellulose substrates. The Ki values for cellobiose inhibition of GH7 CBHs measured on low-Mw substrates are in the micromolar range [44, 51, 52], whereas those measured on cellulose are in the low- to high-millimolar range [28, 31, 32]. […] Unfortunately, the inhibition of this enzyme on cellulose has not been studied. We also studied the cellobiose inhibition of GH7 CBHs acting on MUL. The initial rates of MUL hydrolysis measured in the presence and absence of added cellobiose were first analyzed according to Equation 1, and the IC50 values were found using Equation 2. […] The inhibition of MUL hydrolysis is attributable to the binding of cellobiose to the product sites (+1/+2) of TrCel7A [52]. […]
For the inhibition of enzyme acting on the low-Mw substrate, the initial rates of the hydrolysis of MUL in the presence and absence of added cellobiose were followed. […] Reactions were stopped by the addition of NH3 (final concentration 0.1 M), and the released 4-methylumbelliferone was quantified by fluorescence using excitation and emission wavelengths of 360 nm and 450 nm, respectively.

TrCel12A = tested on: TrCel12A; set-up: method as in PMID 15129433; settings: 3H-reduced amorphous cellulose, cellobiose 1 mM – 100 mM; cited from earlier work

SMILES: O=C[C@H](O)[C@@H](O)[C@H](O[C@@H]1O[C@H](CO)[C@@H](O)[C@H](O)[C@H]1O)[C@H](O)CO [cellobiose, Cellobiose]
- IC50 (TrCel7A; 35°C, IC50 increased with hydrolysis time): 680 ± 240 µM
- IC50 (TrCel7A; 50°C): 2610 ± 100 µM
- Ki (CtCel7A; 35°C): 110 µM
- Ki (CtCel7A; 50°C): 346 µM
- Effect of cellobiose on activity (TrCel12A): apparent activation
